Measurements published in US8039493B2, “Biaryl sulfonamide derivatives” (Hoffmann-La Roche Inc., priority 2008, dated 2011).

Key:
[1] = biological target: T1, human LXR alpha (Homo sapiens, UniProt Q13133); test: Radioligand binding assay (scintillation proximity), LXRα-LBD; conditions: LXRα-LBD on SPA beads, read-out: LXRalpha Binding IC50
T1 construct: human LXR alpha (aa 164 to 447); made in house; host or cells: E. coli BL21 (pLysS)
T1 sequence (Q13133 164-447): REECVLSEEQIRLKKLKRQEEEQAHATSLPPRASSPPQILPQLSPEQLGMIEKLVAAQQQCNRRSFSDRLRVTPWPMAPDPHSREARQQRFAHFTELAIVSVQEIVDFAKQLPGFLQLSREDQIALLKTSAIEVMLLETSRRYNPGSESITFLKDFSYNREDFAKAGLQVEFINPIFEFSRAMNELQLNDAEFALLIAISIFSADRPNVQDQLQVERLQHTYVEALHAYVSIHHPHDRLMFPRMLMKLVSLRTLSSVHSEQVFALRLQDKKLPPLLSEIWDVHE
Method: (§1) The following tests were carried out in order to determine the activity of the compounds of the present invention. […] Mammalian expression vectors were constructed to express full-length human LXR alpha and LXR beta. […] To accomplish this, the portions of the sequences encoding the LBDs were amplified from the full-length clones by PCR and then subcloned into the plasmid vectors.
(§2) Induction, expression, and purification of LBD proteins were performed in E. coli strain BL21 (pLysS) cells by standard methods (Ref: Current Protocols in Molecular Biology, Wiley Press, edited by Ausubel et al).
(§3) Radioligand Binding Assay
(§4) LXR alpha and LXR beta receptor binding were assayed in buffer consisting of 50 mM HEPES, pH 7.4, 10 mM NaCl, 5 mM MgCl2. For each 96-well reaction, 500 ng of LXRα-LBD or 700 ng of LXR beta-LBD proteins were bound to 80 μg or 40 μg SPA beads respectively, in a final volume of 50 μl by shaking. The resulting slurry was incubated for 1 h at RT and centrifuged for 2 min at 1300×g. The supernatant containing unbound protein was removed, and the semi-dry pellet containing the receptor-coated beads was re-suspended in 50 μl of buffer. Radioligand (eg. 100,000 dpm of (N-(2,2,2-trifluoroethyl)-N-[4-(2,2,2-trifluoro-1-hydroxy-1-trifluoromethylethyl)-phenyl]-benzenesulfonamide)) was added, and the reaction incubated at RT for 1 h in the presence of test compounds, and then scintillation proximity counting was performed. All binding assays were performed in 96-well plates and the amount of bound ligand was measured on a Packard TopCount using OptiPlates (Packard). Dose response curves were measured within a range of concentration from 10^−10 M to 10^−4 M.

[2] = biological target: T2, human LXR beta (Homo sapiens, UniProt P55055); test: Radioligand binding assay (scintillation proximity), LXR beta-LBD; conditions: LXR beta-LBD on SPA beads, read-out: LXRbeta Binding IC50
T2 construct: human LXR beta (aa 155 to 460); made in house; host or cells: E. coli BL21 (pLysS)
T2 sequence (P55055 155-460): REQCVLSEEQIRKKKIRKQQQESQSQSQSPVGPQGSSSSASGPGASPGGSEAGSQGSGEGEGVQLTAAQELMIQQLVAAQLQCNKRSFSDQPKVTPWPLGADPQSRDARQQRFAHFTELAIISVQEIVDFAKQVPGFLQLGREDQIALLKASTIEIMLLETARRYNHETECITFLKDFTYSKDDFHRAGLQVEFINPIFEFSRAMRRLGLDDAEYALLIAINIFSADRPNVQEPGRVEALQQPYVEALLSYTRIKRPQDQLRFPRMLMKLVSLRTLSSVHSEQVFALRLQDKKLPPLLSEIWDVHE
Method: as §1, §2, §3, §4

IC50 [1] | IC50 [2] | SMILES
29200 nM | 2610 nM | CN(Cc1ccc(-c2cccc(S(C)(=O)=O)c2)s1)S(=O)(=O)c1ccccc1C(F)(F)F [Example 27, N-[5-(3-Methanesulfonyl-phenyl)-thiophen-2-ylmethyl]-N-methyl-2-trifluoromethyl-benzenesulfonamide]
19900 nM | 440 nM | CCN(Cc1ccc(-c2cccc(S(C)(=O)=O)c2)s1)S(=O)(=O)c1ccccc1C(F)(F)F [Example 28, N-Ethyl-N-[5-(3-methanesulfonyl-phenyl)-thiophen-2-ylmethyl]-2-trifluoromethyl-benzenesulfonamide]
2460 nM | 104 nM | CCCN(Cc1ccc(-c2cccc(S(C)(=O)=O)c2)s1)S(=O)(=O)c1ccccc1C(F)(F)F [Example 29, N-[5-(3-Methanesulfonyl-phenyl)-thiophen-2-ylmethyl]-N-propyl-2-trifluoromethyl-benzenesulfonamide]
7860 nM | 470 nM | CC(C)N(Cc1ccc(-c2cccc(S(C)(=O)=O)c2)s1)S(=O)(=O)c1ccccc1C(F)(F)F [Example 30, N-Isopropyl-N-[5-(3-methanesulfonyl-phenyl)-thiophen-2-ylmethyl]-2-trifluoromethyl-benzenesulfonamide]
1460 nM | 85 nM | CC(C)CN(Cc1ccc(-c2cccc(S(C)(=O)=O)c2)s1)S(=O)(=O)c1ccccc1C(F)(F)F [Example 31, N-Isobutyl-N-[5-(3-methanesulfonyl-phenyl)-thiophen-2-ylmethyl]-2-trifluoromethyl-benzenesulfonamide]
845 nM | 106 nM | CS(=O)(=O)c1cccc(-c2ccc(CN(CC3CC3)S(=O)(=O)c3ccccc3C(F)(F)F)s2)c1 [Example 32, N-Cyclopropylmethyl-N-[5-(3-methanesulfonyl-phenyl)-thiophen-2-ylmethyl]-2-trifluoromethyl-benzenesulfonamide]
13.5 nM | 6.6 nM | CS(=O)(=O)c1cccc(-c2ccc(CN(Cc3ccccc3F)S(=O)(=O)c3ccccc3C(F)(F)F)s2)c1 [Example 33, N-(2-Fluoro-benzyl)-N-[5-(3-methanesulfonyl-phenyl)-thiophen-2-ylmethyl]-2-trifluoromethyl-benzenesulfonamide]
60.5 nM | 83 nM | Cc1noc(C)c1CN(Cc1ccc(-c2cccc(S(C)(=O)=O)c2)s1)S(=O)(=O)c1ccccc1C(F)(F)F [Example 34, N-(3,5-Dimethyl-isoxazol-4-ylmethyl)-N-[5-(3-methanesulfonyl-phenyl)-thiophen-2-ylmethyl]-2-trifluoromethyl-benzenesulfonamide]
975 nM | 116 nM | COCCN(Cc1ccc(-c2cccc(S(C)(=O)=O)c2)s1)S(=O)(=O)c1ccccc1C(F)(F)F [Example 35, N-[5-(3-Methanesulfonyl-phenyl)-thiophen-2-ylmethyl]-N-(2-methoxy-ethyl)-2-trifluoromethyl-benzenesulfonamide]
665 nM | 17.5 nM | CS(=O)(=O)c1cccc(-c2ccc(CN(CC3CCC3)S(=O)(=O)c3ccccc3C(F)(F)F)s2)c1 [Example 36, N-Cyclobutylmethyl-N-[5-(3-methanesulfonyl-phenyl)-thiophen-2-ylmethyl]-2-trifluoromethyl-benzenesulfonamide]
17.5 nM | 11.5 nM | CC(C)(C)OC(=O)CN(Cc1ccc(-c2cccc(S(C)(=O)=O)c2)s1)S(=O)(=O)c1ccccc1C(F)(F)F [Example 37, [[5-(3-Methanesulfonyl-phenyl)-thiophen-2-ylmethyl]-(2-trifluoromethyl-benzenesulfonyl)-amino]-acetic acid tert-butyl ester]
2410 nM | 160 nM | CCN(CC)C(=O)CN(Cc1ccc(-c2cccc(S(C)(=O)=O)c2)s1)S(=O)(=O)c1ccccc1C(F)(F)F [Example 38, N,N-Diethyl-2-[[5-(3-methanesulfonyl-phenyl)-thiophen-2-ylmethyl]-(2-trifluoromethyl-benzenesulfonyl)-amino]-acetamide]
820 nM | 47 nM | CS(=O)(=O)c1cccc(-c2ccc(CN(CC3OCCO3)S(=O)(=O)c3ccccc3C(F)(F)F)s2)c1 [Example 39, N-[1,3]Dioxolan-2-ylmethyl-N-[5-(3-methanesulfonyl-phenyl)-thiophen-2-ylmethyl]-2-trifluoromethyl-benzenesulfonamide]
10700 nM | 285 nM | CS(=O)(=O)c1cccc(-c2ccc(CN(CCN3CCCC3)S(=O)(=O)c3ccccc3C(F)(F)F)s2)c1 [Example 40, N-[5-(3-Methanesulfonyl-phenyl)-thiophen-2-ylmethyl]-N-(2-pyrrolidin-1-yl-ethyl)-2-trifluoromethyl-benzenesulfonamide]
790 nM | 37 nM | CS(=O)(=O)c1cccc(-c2ccc(CN(CC3CCCO3)S(=O)(=O)c3ccccc3C(F)(F)F)s2)c1 (centres unmarked) [Example 41, N-[5-(3-Methanesulfonyl-phenyl)-thiophen-2-ylmethyl]-N-(tetrahydro-furan-2-ylmethyl)-2-trifluoromethyl-benzenesulfonamide]
8.2 nM | 6.8 nM | CC(C)CN(Cc1ccc(-c2cccc(S(C)(=O)=O)c2)cc1F)S(=O)(=O)c1ccccc1Cl [Example 42, 2-Chloro-N-(3-fluoro-3′-methanesulfonyl-biphenyl-4-ylmethyl)-N-isobutyl-benzenesulfonamide]
26 nM | 19 nM | CC(C)CN(Cc1cccc(-c2cccc(S(C)(=O)=O)c2)c1)S(=O)(=O)c1ccccc1Cl [Example 43, 2-Chloro-N-isobutyl-N-(3′-methanesulfonyl-biphenyl-3-ylmethyl)-benzenesulfonamide]
3440 nM | 30 nM | CC(C)CN(Cc1cncc(-c2cccc(S(C)(=O)=O)c2)c1)S(=O)(=O)c1ccccc1Cl [Example 44, 2-Chloro-N-isobutyl-N-[5-(3-methanesulfonyl-phenyl)-pyridin-3-ylmethyl]-benzenesulfonamide]
425 nM | 2.3 nM | CC(C)CN(Cc1ccc(-c2cccc(S(C)(=O)=O)c2)cn1)S(=O)(=O)c1ccccc1Cl [Example 45, 2-Chloro-N-isobutyl-N-[5-(3-methanesulfonyl-phenyl)-pyridin-2-ylmethyl]-benzenesulfonamide]
1480 nM | 49.5 nM | CC(C)CN(Cc1cccc(-c2cccc(S(C)(=O)=O)c2)n1)S(=O)(=O)c1ccccc1Cl [Example 47, 2-Chloro-N-isobutyl-N-[6-(3-methanesulfonyl-phenyl)-pyridin-2-ylmethyl]-benzenesulfonamide]
7860 nM | 150 nM | CC(C)CN(Cc1ccnc(-c2cccc(S(C)(=O)=O)c2)c1)S(=O)(=O)c1ccccc1Cl [Example 48, 2-Chloro-N-isobutyl-N-[2-(3-methanesulfonyl-phenyl)-pyridin-4-ylmethyl]-benzenesulfonamide]
20100 nM | 1560 nM | CCCN(Cc1cccc(-c2cccc(S(C)(=O)=O)c2)c1)S(=O)(=O)C(C)C [Example 49, Propane-2-sulfonic acid (3′-methanesulfonyl-biphenyl-3-ylmethyl)-propyl-amide]
2270 nM | 805 nM | CC(C)CN(Cc1cccc(-c2cccc(S(C)(=O)=O)c2)c1)S(=O)(=O)C(C)C [Example 50, Propane-2-sulfonic acid isobutyl-(3′-methanesulfonyl-biphenyl-3-ylmethyl)-amide]
1630 nM | 280 nM | CC(C)S(=O)(=O)N(Cc1cccc(-c2cccc(S(C)(=O)=O)c2)c1)CC1CCC1 [Example 51, Propane-2-sulfonic acid cyclobutylmethyl-(3′-methanesulfonyl-biphenyl-3-ylmethyl)-amide]
610 nM | 33.5 nM | CC(C)S(=O)(=O)N(Cc1cccc(-c2cccc(S(C)(=O)=O)c2)c1)Cc1ccccc1F [Example 52, Propane-2-sulfonic acid (2-fluoro-benzyl)-(3′-methanesulfonyl-biphenyl-3-ylmethyl)-amide]
